Source: patent US20060079453A1, “Hla binding peptides and their uses” (priority 2002, published 2006)
No end group written: not given here.

Experiments:
Assay in all cases: biochemical
Assay type in all cases: binding
HLA-DR DRB3*0101 (DR52) = HLA-DR DRB3*0101 (DR52) (Homo sapiens, UniProt P01903+P79483)
HLA-DR DRB5*0101 (DR51) = HLA-DR DRB5*0101 (DR51) (Homo sapiens, UniProt P01903+Q30154); conditions: DRB5 *0101
HLA-DR DRB1*1101 (DR11) = HLA-DR DRB1*1101 (DR11) (Homo sapiens, UniProt P01903+P01911, A100R/A169T/A87E/I96F/K41T/L162R/M171V/P40S/Q125H/Q178H/Q39Y/Q99D/R42S/S66Y/T262R/V115G/W38E); conditions: DRB1 *1101
Sequence of HLA-DR DRB1*1101 (DR11) (P01903 26-254 limits assumed, other chains not shown): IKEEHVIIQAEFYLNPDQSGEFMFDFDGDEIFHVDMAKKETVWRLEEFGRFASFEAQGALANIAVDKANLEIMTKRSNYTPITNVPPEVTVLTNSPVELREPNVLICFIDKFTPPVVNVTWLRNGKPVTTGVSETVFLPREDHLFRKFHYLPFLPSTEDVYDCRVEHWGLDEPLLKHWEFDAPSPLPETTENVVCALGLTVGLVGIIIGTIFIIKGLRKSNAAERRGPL

HLA-DR DRB1*0701 (DR7) = HLA-DR DRB1*0701 (DR7) (Homo sapiens, UniProt P01903+P01911, A100R/A102G/A103Q/D57E/D86V/E43K/F76Y/K127E/L162R/M171V/P40G/Q125H/Q99D/R33Q/R42Y/R54Q/S133A/S66F/T210M/V115G/Y107V/Y59L/Y89S); conditions: DRB1 *0701
HLA-DR DRB1*0901 (DR9) = HLA-DR DRB1*0901 (DR9) (Homo sapiens, UniProt P01903+P01911, A100R/A103E/D57H/D86V/F55Y/F60I/F76Y/I96F/K127E/L162R/M171V/P40D/Q125H/Q99R/R33Q/R42F/S133A/S66N/T210M/V115G/W38K/Y107V/Y59G/Y89S); conditions: DRB1 *0901
HLA-DR DRB1*0101 (DR1) = HLA-DR DRB1*0101 (DR1) (Homo sapiens, UniProt P01903+P01911, A100R/D57E/F55L/F60I/F76Y/I96L/L162R/M171V/P40L/Q125E/R42F/V115G/Y59C); conditions: DRB1 *0101
HLA-DR DRB1*1501 (DR15) = HLA-DR DRB1*1501 (DR15) (Homo sapiens, UniProt P01903+P01911); conditions: DRBI *1501
HLA-DR DRB1*0802 (DR8) = HLA-DR DRB1*0802 (DR8) (Homo sapiens, UniProt P01903+P01911, A100R/A103L/A169T/F76Y/H45Y/I96F/K41T/L162R/M171V/P40S/Q125H/Q178H/Q39Y/Q99D/R218S/R42G/S66Y/V115G/W38E)
HLA-DR DRB1*1302 (DR13) = HLA-DR DRB1*1302 (DR13) (Homo sapiens, UniProt P01903+P01911, A100E/A169T/K41T/L162R/M171V/P40S/Q125H/Q178H/Q39Y/Q99D/R42S/S66N/T262R/V115G/W38E/Y61H); conditions: DRBI *1302
Sequence of HLA-DR DRB1*1302 (DR13) (P01903 26-254 limits assumed, other chains not shown): as above

HLA-DR DRB4*0101 (DR53) = HLA-DR DRB4*0101 (DR53) (Homo sapiens, UniProt P01903+P13762, G164S); conditions: DRB4 *0101
HLA-DR DRB1*0401 (DR4) = HLA-DR DRB1*0401 (DR4) (Homo sapiens, UniProt P01903+P01911, A100K/A169T/F76Y/I96L/K127E/L162R/M171V/N62H/P40V/Q125Y/R42H/S133A/S149N/S66Y/V115G/V209L/W38E); conditions: DRB1 *0401

| Compound | IC50 (HLA-DR DRB3*0101 (DR52)) | IC50 (HLA-DR DRB5*0101 (DR51)) | IC50 (HLA-DR DRB1*1101 (DR11)) | IC50 (HLA-DR DRB1*0701 (DR7)) | IC50 (HLA-DR DRB1*0901 (DR9)) | IC50 (HLA-DR DRB1*0101 (DR1)) | IC50 (HLA-DR DRB1*1501 (DR15)) | IC50 (HLA-DR DRB1*0802 (DR8)) | IC50 (HLA-DR DRB1*1302 (DR13)) | IC50 (HLA-DR DRB4*0101 (DR53)) | IC50 (HLA-DR DRB1*0401 (DR4)) |
| --- | --- | --- | --- | --- | --- | --- | --- | --- | --- | --- | --- |
| CC(C)C[C@H](NC(=O)[C@H](CCC(N)=O)NC(=O)[C@H](C)NC(=O)[C@H](CC(N)=O)NC(=O)[C@H](CCCCN)NC(=O)[C@@H](NC(=O)[C@H](CCCCN)NC(=O)[C@H](CC(N)=O)NC(=O)CN)C(C)C)C(=O)N[C@@H](C)C(=O)NCC(=O)N[C@@H](C)C(=O)N[C@@H](CCCCN)C(=O)NCC(=O)N[C@H](C(=O)O)C(C)C | > 12.5 µM | 1.22 µM | > 66.7 µM | > 83.3 µM | 7.88 µM | 0.677 µM | > 45.5 µM | 28.9 µM | > 35 µM | – | – |
| CSCC[C@H](NC(=O)[C@H](CCC(=O)O)NC(=O)[C@H](CCC(N)=O)NC(=O)[C@@H]1CCCN1)C(=O)N[C@@H](CCCCN)C(=O)N[C@H](C(=O)N[C@@H](Cc1ccc(O)cc1)C(=O)N[C@@H](CO)C(=O)N[C@H](C(=O)N[C@@H](CO)C(=O)N[C@@H](Cc1ccccc1)C(=O)N[C@@H](CC(=O)O)C(=O)N[C@@H](CO)C(=O)N[C@@H](CC(C)C)C(=O)N[C@@H](Cc1ccccc1)C(=O)O)C(C)C)[C@@H](C)O | 14.6 µM | ≥ 100 µM | > 50 µM | – | 1.98 µM | 15.1 µM | 0.919 µM | > 98 µM | 24.7 µM | 0.579 µM | 3.02 µM |
| CC[C@H](C)[C@H](NC(=O)[C@H](CO)NC(=O)[C@@H](NC(=O)CNC(=O)[C@H](CCC(=O)O)NC(=O)[C@@H]1CCCN1)C(C)C)C(=O)N[C@@H](Cc1c[nH]c2ccccc12)C(=O)N[C@@H](CC(N)=O)C(=O)N1CCC[C@H]1C(=O)N[C@H](C(=O)N[C@@H](CC(C)C)C(=O)N[C@@H](CC(C)C)C(=O)N[C@@H](Cc1c[nH]c2ccccc12)C(=O)N[C@@H](CCC(N)=O)C(=O)N1CCC[C@H]1C(=O)O)[C@@H](C)CC | 4.62 µM | 22.2 µM | 30.9 µM | 15 µM | 103 µM | – | 0.0072 µM | 28.6 µM | – | 0.107 µM | 1.78 µM |
| CC[C@H](C)[C@H](NC(=O)[C@H](CO)NC(=O)[C@H](CC(N)=O)NC(=O)[C@H](C)NC(=O)[C@H](CC(C)C)NC(=O)[C@H](CCC(=O)O)NC(=O)[C@H](Cc1ccccc1)NC(=O)[C@@H](N)C(C)C)C(=O)N[C@H](C(=O)N[C@@H](CC(C)C)C(=O)N1CCC[C@H]1C(=O)N[C@@H](Cc1ccccc1)C(=O)N[C@@H](CC(=O)O)C(=O)N[C@@H](CS)C(=O)N[C@@H](CCCNC(=N)N)C(=O)O)C(C)C | 0.128 µM | – | 11.8 µM | 0.039 µM | 0.05 µM | 0.019 µM | 0.477 µM | 36.1 µM | 0.024 µM | – | 0.999 µM |
| RVPVSHSFPHPLYNM | > 14.9 µM | – | > 200 µM | – | 0.097 µM | 0.067 µM | 5.52 µM | 100 µM | 0.377 µM | 9.21 µM | > 16 µM |
| CC[C@H](C)[C@H](NC(=O)[C@H](CO)NC(=O)[C@H](CO)NC(=O)[C@H](CC(=O)O)NC(=O)[C@H](C)NC(=O)[C@H](CC(N)=O)NC(=O)[C@@H](NC(=O)[C@H](Cc1ccc(O)cc1)NC(=O)[C@H](C)NC(=O)[C@@H](NC(=O)CN)C(C)C)[C@@H](C)CC)C(=O)N[C@@H](CCC(=O)O)C(=O)NCC(=O)N[C@@H](CC(N)=O)C(=O)N[C@@H](Cc1ccc(O)cc1)C(=O)O | 1.42 µM | 66.7 µM | > 40 µM | 6.24 µM | 3.05 µM | – | 7.61 µM | 23.4 µM | – | 0.477 µM | 0.146 µM |
| GQRVPVSHSFPHPLY | > 14.9 µM | > 200 µM | > 200 µM | 0.629 µM | 0.102 µM | 1.56 µM | – | > 245 µM | 0.703 µM | 9.86 µM | > 40 µM |
